The values that follow come from PMC5797931 (Frontiers in Pharmacology, 2018).

One data set in a line: in vivo. Details: species or system piglets (Landrace × large white). Particulars: male, Landrace × large white (Seghers Hybrid), pig, 120 ug. The procedure:
The current study was approved by the ethical committee of the Faculties of Veterinary Medicine and Bioscience Engineering of Ghent University (EC2014/184). Care and use of animals was in full compliance with the national (Belgian Royal Decree, [2013]) and European legislation (Anonymous, [2010]). […] Opti®, 6 months: […], Leuven, Belgium) and drinking water. Natural light was provided by translucent windows and the stable temperature was 23.2 ± 0.56°C. Higher temperatures were obtained in the rescue decks through heating lamps. In all age groups, a double lumen catheter was placed in the jugular vein according to Gasthuys et al. ([2017b]). After surgery, the piglets were housed individually to avoid displacement of the catheters. During single housing, a cotton towel was added to the decks and stables to mimic the smell of the other piglets. During the experiments, the stables were enriched with hanging chains, rubber toys and balls of different sizes. The environmental enrichment was rotated daily. […] Afterwards, the snout was closed during 30 s to ensure full dissolution of the lyophilisate. […] The CT-scans were processed using VGStudioMax (Volume Graphics GmbH, Heidelberg, Germany) and the body surface area (BSA) was determined after visualization and selection of the body surface in 3D (UGCT-Department of Physics and Astronomy, Ghent University, Ghent, Belgium). The GFR was determined as the clearance of the exogenous marker exo-iohexol (Gasthuys et al., [2017a]). […] Desmopressin plasma concentrations were determined at Aarhus University Hospital (Aarhus, Denmark) using a validated radioimmunoassay method as described by Emmeluth et al. […] Subsequently, based on a visual exploration of the plasma concentration-time profiles obtained in the growing piglets, a two-compartmental disposition model and a dual-input were evaluated to describe the absorption of the sublingual desmopressin lyophilisate. […]

The conditions of data set [1]: human, in vivo; cited from earlier work.

Where only a bound is given, the exact number is not on record here.

In the data set “in vivo”, `NC(=O)CC[C@@H]1NC(=O)[C@H](Cc2ccccc2)NC(=O)[C@H](Cc2ccc(O)cc2)NC(=O)CCSSC[C@@H](C(=O)N2CCC[C@H]2C(=O)N[C@H](CCCN=C(N)N)C(=O)NCC(N)=O)NC(=O)[C@H](CC(N)=O)NC1=O` [desmopressin, 1-desamino-8-D-arginine vasopressin] showed a CL/F of 6580 mL/min and a Vd/F of 131 L. The compound also came in with a maximum concentration (Cmax) in “in vivo” (po) of roughly 0.25 ng/mL. The “F, absolute oral bioavailability” value in data set [1] is less than 1%.

In general, CL/F refers to the apparent clearance, not corrected for the fraction that reaches the circulation. Broadly, the Vd/F is the apparent distribution volume after extravascular dosing. By Cmax is commonly meant the highest concentration seen after dosing.
